Test results taken from patent US20250288587A1, “Methods of Treating Fibrosis” (Athira Pharma, Inc., priority 2022, published 2025).

Legend:
[1] = tested on: CFA-stimulated rats; assay: CFA inflammatory pain model, mechanical allodynia (von Frey test); assay type: in vivo; set-up: key to Mechanical Allodynia, change in sensitivity compared to CFA alone / Mechanical Allodynia, significant reduction in pain behavior vs CFA alone: NS = no statistically significant change in sensitivity compared to CFA alone; + = statistically significant change in sensitivity compared to CFA alone, p < 0.05
Method: (§1) Response to peripheral inflammatory stimulus can be modeled by administering complete Freund's adjuvant (CFA), a suspension of desiccated mycobacterium in paraffin oil and mannide monooleate, by subcutaneous injection into the rat's footpad. The introduction of CFA to peripheral tissues leads to a rapid, sustained, inflammatory reaction in the treated tissue within 24 hours. Subcutaneous administration of CFA in the plantar region of the paw induces inflammatory pain behaviors that persist for at least 8 days. CFA treatment also leads to the accumulation of inflammatory cytokines in paw tissue at the site of injury, which, if unresolved, can lead to formation of fibrotic tissue. The extent of inflammatory response to CFA can be assessed by quantification of inflammatory cytokines in paw skin lysate, and inflammatory pain behaviors by mechanical allodynia (von Frey test) and thermal hyperalgesia (Hargreaves test).
(§2) In one study, Compound 2a was tested for its ability to reduce inflammatory pain behaviors in the CFA inflammation model. On study day 0, […] of CFA was administered subcutaneously in the plantar of the right hind paw. Animals were treated daily with Compound 2a in solution via oral gavage (PO) at doses of 1, 0.1, and 0.025 mg/kg. Treatment began before CFA injection on study day −1 and continued through study day 8.
Mechanical allodynia was measured using the von Frey test. In this test, rats were placed on a wire mesh and a series of filaments designed to deliver probing force ranging from 4 to 26 grams were applied to the mid-plantar surface of the right hind paw. Animals indicated pain response by lifting the probed paw. The minimal force required to elicit the withdrawal response was recorded as the paw withdrawal threshold (PWT). Von Frey testing was performed 1 hour after Compound 2a dosing on study day 1, 3, and 7, and was also tested pre-dosing on day 7. Statistical analysis was performed using a 1-way ANOVA with Tukey post-test. A p-value below 0.05 was considered statistically significant. Control animals stimulated with CFA but treated with only vehicle had high sensitivity to mechanical stimulation compared to normal control animals.
(§3) In another study, Compounds 1a, 5a, and 6a were similarly tested against CFA-induced inflammatory stimulation in the right hind foot for their ability to reduce pain behaviors. This study also included quantification of inflammatory cytokine expression in paw skin lysate. Inflammatory pain stimulation with CFA injection and assessment of mechanical and thermal pain behaviors were performed as described above, with the exception that only post-dose pain behavior testing is reported.
(§4) Intraplantar CFA injection occurred at day 0. Treatment with Compounds 1a, 5a, and 6a occurred at days −2, 1, 3, and 7. At day 8, the rats were terminated and cytokine levels were measured in paw skin and plasma. Tissue from paw bone, joint, and muscle were obtained for H&E staining and analysis. Cytokine levels in test compound-treated animals were compared to CFA-stimulated animals. Analytes included interleukin 4 (IL-4), tumor necrosis factor alpha (TNF-α) and interferon gamma (IFN-γ). Statistical analysis consisted of 1-way ANOVA followed by Dunnett's multiple comparisons post-test. Mechanical allodynia and thermal hyperalgesia were tested 1 hour post-dosing on days 1, 3, and 7. PWT refers to […] paw withdrawal threshold where a higher value corresponds to a higher pain threshold. PWL refers to […] paw withdrawal latency where a higher value corresponds to a higher pain threshold.

[2] = tested on: CFA-stimulated rats; assay: CFA inflammatory pain model, cytokine expression in paw skin; assay type: in vivo; set-up: key to IFN-γ expression in paw skin, change compared to CFA alone / IL-4 expression in paw skin, change compared to CFA alone / TNF-α expression in paw skin, change compared to CFA alone: NS = no statistically significant change in expression compared to CFA alone; + = statistically significant change in expression compared to CFA alone, p < 0.05; conditions: for IFN-γ expression in paw skin, change compared to CFA alone / IL-4 expression in paw skin, change compared to CFA alone / TNF-α expression in paw skin, change compared to CFA alone: day 8
Method: as §1, §3, §4

[3] = tested on: THP-1-differentiated macrophages; assay: Pro-inflammatory cytokine expression in LPS-challenged THP-1-differentiated macrophages; assay type: cell-based, human; set-up: key to IL-6, significant reduction in culture supernatant vs LPS treatment / TNF-α, significant reduction in culture supernatant vs LPS treatment / IL-1β, significant reduction in culture supernatant vs LPS treatment: “NS” indicates a non-significant reduction in the indicated cytokine; “+” indicates a p value <0.05 in Tukey post test; “++” indicates a p value <0.01 in Tukey post test; conditions: for IL-1β, significant reduction in culture supernatant vs LPS treatment / IL-6, significant reduction in culture supernatant vs LPS treatment / TNF-α, significant reduction in culture supernatant vs LPS treatment: 20 min pre-treatment, 24 hrs LPS
Method: Differentiation with PMA causes THP-1 monocyte cells to acquire functional and morphological resemblance to macrophages. LPS interacts with THP-1 differentiated macrophage through the toll-like receptor 4, triggering the inflammatory response and stimulating pro-inflammatory cytokine release and eventually leading to cellular death. Compounds were tested to determine their anti-inflammatory effects on LPS-challenged macrophage cultures. THP-1-differentiated macrophages were treated with test compounds for 20 minutes, followed by 24 hrs of LPS challenge. Culture supernatants were then collected to analyzed for the presence of pro-inflammatory cytokines: […], interleukin 6 (IL-6) and tumor necrosis factor α (TNF-α).
Cytokine quantification in cell culture supernatants was accomplished by HTRF kits to assess levels of IL-1β (Human IL-1β kit, #62HIL1BPEG, Cisbio) and IL-6 (Human IL-6 kit, 62HIL06PET, Cisbio), and by ELISA to determine the levels of TNF-α (Human TNF-α ELISA kit, KHC3011, ThermoFisher).
Data analysis was performed via 1-way ANOVA with Tukey post-test compared to LPS treatment cultures using Prism statistical software (GraphPad). Tabular data indicates significance of reduction in culture supernatants for the indicated analyte at the indicated doses.

[4] = tested on: CFA-stimulated rats; assay: CFA inflammatory pain model, thermal hyperalgesia (Hargreaves method); assay type: in vivo; set-up: key to Thermal Hyperalgesia, change in sensitivity compared to CFA alone / Thermal Hyperalgesia, significant reduction in pain behavior vs CFA alone: NS = no statistically significant change in sensitivity compared to CFA alone; + = statistically significant change in sensitivity compared to CFA alone, p < 0.05
Method: as §1, §2
Thermal hyperalgesia was measured using the Hargreaves method. A temperature ramp was applied to the right hind paw and the paw withdrawal latency (PWL) was recorded as a measure of sensitivity to thermal stimulation. […] Statistical analysis was performed using a 1-way ANOVA with Tukey post-test. A p-value below 0.05 was considered statistically significant.
as §3, §4

[5] = tested on: CFA-stimulated rats; assay: as above; assay type: in vivo; conditions: Day 5, 1 hour pre-dosing; data not shown
[6] = 2.5 mg/kg PO, Day 1, 1 h post-dose
[7] = 2.5 mg/kg PO, Day 3, 1 h post-dose
[8] = 2.5 mg/kg PO, Day 7, 1 h post-dose
[9] = 10 mg/kg PO, Day 1, 1 h post-dose
[10] = 10 mg/kg PO, Day 3, 1 h post-dose
[11] = 10 mg/kg PO, Day 7, 1 h post-dose

Compound: CCC(C)CN1CC2N(Cc3ccc(OC(F)F)cc3)CCC(=O)N2[C@@H](C)C1=O (some centres unmarked) [Compound 6a]
- Mechanical Allodynia, significant reduction in pain behavior vs CFA alone [1, 6]: NS
- Mechanical Allodynia, significant reduction in pain behavior vs CFA alone [1, 7]: NS
- Mechanical Allodynia, significant reduction in pain behavior vs CFA alone [1, 8]: NS
- Mechanical Allodynia, significant reduction in pain behavior vs CFA alone [1, 9]: NS
- Mechanical Allodynia, significant reduction in pain behavior vs CFA alone [1, 10]: NS
- Mechanical Allodynia, significant reduction in pain behavior vs CFA alone [1, 11]: NS
- IFN-γ expression in paw skin, change compared to CFA alone ([2]; 2.5 mg/kg PO): NS
- IL-4 expression in paw skin, change compared to CFA alone ([2]; 2.5 mg/kg PO): + (+ = statistically significant change in expression compared to CFA alone, p < 0.05)
- TNF-α expression in paw skin, change compared to CFA alone ([2]; 2.5 mg/kg PO): + (+ = statistically significant change in expression compared to CFA alone, p < 0.05)
- IFN-γ expression in paw skin, change compared to CFA alone ([2]; 10 mg/kg PO): NS
- IL-4 expression in paw skin, change compared to CFA alone ([2]; 10 mg/kg PO): NS
- TNF-α expression in paw skin, change compared to CFA alone ([2]; 10 mg/kg PO): NS
- IFN-γ expression in paw skin ([2]; both tested doses): no effect
- IL-1β, significant reduction in culture supernatant vs LPS treatment ([3]; 0.1 nM): NS
- IL-6, significant reduction in culture supernatant vs LPS treatment ([3]; 0.1 nM): NS
- TNF-α, significant reduction in culture supernatant vs LPS treatment ([3]; 0.1 nM): NS
- IL-1β, significant reduction in culture supernatant vs LPS treatment ([3]; 10 nM): NS
- IL-6, significant reduction in culture supernatant vs LPS treatment ([3]; 10 nM): NS
- TNF-α, significant reduction in culture supernatant vs LPS treatment ([3]; 10 nM): NS
- IL-1β, significant reduction in culture supernatant vs LPS treatment ([3]; 1000 nM): + (“+” indicates a p value <0.05 in Tukey post test)
- IL-6, significant reduction in culture supernatant vs LPS treatment ([3]; 1000 nM): NS
- TNF-α, significant reduction in culture supernatant vs LPS treatment ([3]; 1000 nM): + (“+” indicates a p value <0.05 in Tukey post test)
- expression of IL-1β and TNF-α ([3]; at at least one tested dose): significantly reduced
- Thermal Hyperalgesia, significant reduction in pain behavior vs CFA alone [4, 6]: NS
- Thermal Hyperalgesia, significant reduction in pain behavior vs CFA alone [4, 7]: NS
- Thermal Hyperalgesia, significant reduction in pain behavior vs CFA alone [4, 8]: + (+ = statistically significant change in sensitivity compared to CFA alone, p < 0.05)
- Thermal Hyperalgesia, significant reduction in pain behavior vs CFA alone [4, 9]: NS
- Thermal Hyperalgesia, significant reduction in pain behavior vs CFA alone [4, 10]: NS
- Thermal Hyperalgesia, significant reduction in pain behavior vs CFA alone [4, 11]: + (+ = statistically significant change in sensitivity compared to CFA alone, p < 0.05)
- study days on which thermal sensitivity was reduced ([4]; PO, post-dose testing, any tested dose): study day 7
- PWL (paw withdrawal latency) vs CFA+vehicle ([4]; day 7 at each dose, data not shown): statistically significant increase
- PWL (paw withdrawal latency) [5]: statistically significant increase
